Measurements: patent US20240325298A1, “COMPOSITIONS, METHODS AND SYSTEMS FOR AEROSOL DRUG DELIVERY” (AstraZeneca Pharmaceuticals LP, priority 2021, published 2024)

What was measured:
[1] = Particle size distribution by laser diffraction (optical diameter); assay type: physicochemical
Excerpt: When referred to herein, the term “optical diameter” indicates the size of a particle as measured by the Fraunhofer diffraction mode using a laser diffraction particle size analyzer equipped with a dry powder dispenser (e.g., Sympatec GmbH, Clasthal-Zellerfeld, Germany).
Suspending particles were manufactured by spray drying an emulsion of PFOB (perfluorooctyl bromide) and water stabilized by DSPC (1,2-Distearoyl-sn-Glycero-3-Phosphocholine). […] The particle size distribution of the suspending particles was determined by laser diffraction.
Active agent particles formed of budesonide, 16,17-(butylidenebis(oxy))-11,21-dihydroxy-(11-β,16-α)-pregna-1,4-diene-3,20-dione, were formed by micronizing budesonide using a jet mill. The particle size distribution of the budesonide (BD) was determined by laser diffraction.

[2] = NGI aerosol performance stability data after storage of the MDI (valve down, protected); assay type: physicochemical; conditions: stored valve down and protected at 25° C./60% RH
[3] = budesonide/formoterol co-suspension in HFO-1234ze(E)

| Molecule | optical diameter that 50% by volume of the particles are smaller than [1] | optical diameter that 90% by volume of the particles are smaller than [1] | stability of the aPSD [2, 3] | stability of the aPSD ([2]; budesonide/albuterol co-suspension in HFO-1234ze(E)) |
| --- | --- | --- | --- | --- |
| COc1ccc(CC(C)NCC(O)c2ccc(O)c(NC=O)c2)cc1.O=C(O)/C=C/C(=O)O (racemic) [formoterol fumarate, (±)-2-hydroxy-5-[(1RS)-1-hydroxy-2-[[(1RS)-2-(4-methoxyphenyl)-1-methylethyl]-amino]ethyl]formanilide fumarate] | smaller than 1.6 μm | smaller than 3.9 μm | – | – |
| CCCCCCCCCCCCCCCCCC(=O)OC[C@H](COP(=O)([O-])OCC[N+](C)(C)C)OC(=O)CCCCCCCCCCCCCCCCC [DSPC, 1,2-Distearoyl-sn-Glycero-3-Phosphocholine] | – | – | stable for twelve months | – |
| CCCC1O[C@@H]2C[C@H]3[C@@H]4CCC5=CC(=O)C=C[C@]5(C)[C@H]4[C@@H](O)C[C@]3(C)[C@]2(C(=O)CO)O1 (stereo partly drawn) [budesonide, 16,17-(butylidenebis(oxy))-11,21-dihydroxy-(11-β,16-α)-pregna-1,4-diene-3,20-dione] | – | – | stable for twelve months | stable for twelve months |
| C[N+]1(C)CCC(OC(=O)C(O)(c2ccccc2)C2CCCC2)C1.[Br-] (stereo not drawn) [glycopyrrolate, Pyrrolidinium, 3-((cyclopentylhydroxyphenylacetyl)oxy)-1,1-dimethyl-, bromide] | smaller than 2.1 μm | smaller than 5 μm | – | – |
| albuterol sulfate | smaller than 1.5 μm | smaller than 3.3 μm | – | – |
